Test results as given in patent US5296591A, “Trifluoromethylketone derivatives, processes for preparation thereof and use thereof” (Fujisawa Pharmaceutical Co., Ltd., priority 1990, dated 1994).
Read-outs that look alike come from different tables or passages of the source.

Key:
[1] = target: T1, human sputum elastase (HSE) (Homo sapiens, UniProt P08246); assay: Protease inhibition assay (in vitro), human sputum elastase; format: biochemical; settings: substrate methoxysuccinyl-(Ala)2-Pro-Val-p-nitroanilide, 30 min, room temperature, pH 7.5
T1 construct: HSE was obtained from Elastin Products Company Inc., Mo., U.S.A; purchased Elastin Products Company Inc; host or cells: human sputum (from the enzyme's name)
T1 sequence (P08246 30-267): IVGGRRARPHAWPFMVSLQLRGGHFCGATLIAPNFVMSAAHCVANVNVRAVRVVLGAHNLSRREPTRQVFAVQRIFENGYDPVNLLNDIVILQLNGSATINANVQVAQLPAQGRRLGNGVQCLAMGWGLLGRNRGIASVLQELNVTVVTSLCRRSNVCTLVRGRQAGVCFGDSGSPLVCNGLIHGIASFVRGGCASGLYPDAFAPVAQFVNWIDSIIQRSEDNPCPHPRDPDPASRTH
Method: (§1) A buffer used throughout the assay was 0.1M HEPES (4-(2-hydroxyethyl)-1-piperazineethanesulfonic acid) containing 0.5M NaCl, pH 7.5. Twenty-five microliters of 2 mM methoxysuccinyl-(Ala)2 -Pro-Val-p-nitroanilide (100 mM of dimethyl sulfoxide solution were diluted in the buffer) and 50 μl of sample (10 μl of sample in organic solvent was diluted 5-fold in the buffer) were mixed in wells of 96 well-microliter plate. An absorbance of the mixture in wavelength at 415 nm was measured by a microplate reader (Corona Electric Co., Ibaraki, Japan). After the measurement, 25 μl of 6 μg/ml human sputum elastase (HSE) was added and the mixture was allowed to stand for 30 minutes at room temperature. Then, the absorbance at 415 nm was measured. Percent inhibition by drug was determined by 100×(1-"r" inhibitor present/"r" inhibitor absent), where "r" is absorbance after 30 minutes incubation minus absorbance before enzyme addition. Effect of inhibitors against porcine pancreas elastase (Type IV, 5 μg/ml final) was assayed similarly using N-succinyl-(Ala)3 -p-nitroanilide. HSE was obtained from Elastin Products Company Inc., Mo., U.S.A. All other substrates and protease were purchased from Sigma Chemicals Co.

[2] = target: T2, porcine pancreas elastase (Type IV) (Sus scrofa, UniProt P00772); assay: Protease inhibition assay (in vitro), porcine pancreas elastase; format: biochemical; settings: substrate N-succinyl-(Ala)3-p-nitroanilide, enzyme 5 μg/ml final
T2 construct: purchased Sigma Chemicals Co; host or cells: porcine pancreas (from the enzyme's name)
T2 sequence (P00772 27-266): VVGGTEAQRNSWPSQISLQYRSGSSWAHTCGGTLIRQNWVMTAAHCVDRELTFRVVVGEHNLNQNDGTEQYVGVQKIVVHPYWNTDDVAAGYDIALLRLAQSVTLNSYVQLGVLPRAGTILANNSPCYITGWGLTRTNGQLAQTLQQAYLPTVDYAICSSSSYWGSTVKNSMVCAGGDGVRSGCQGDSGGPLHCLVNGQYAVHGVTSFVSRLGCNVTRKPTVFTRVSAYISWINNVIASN
Method: as §1

[3] = tested on: human sputum elastase-induced lung hemorrhage in hamsters; assay: Elastase-induced pulmonary damage (lung hemorrhage) in hamsters; format: in vivo, hamster; settings: 5 min predose; for Hemorrhage (OD541 nm): BAL hemoglobin 3 h after elastase; for ED50 elastase-induced lung hemorrhage: intratracheal
Method: Hamsters under pentobarbital anesthesia were used. Saline or saline-containing human sputum elastase was instilled intratracheally via a small incision in the ventral neck region using 1-ml syringe with a 27-gauge needle. After 3 hours, animals were sacrificed by CO2 asphyxiation, each animal's trachea was reexposed. The lungs were then laveged using a 2.5-ml aliquot of saline and then withdrawing the saline, yielding a final volume of approximately 1.5 ml bronchoalveolar lavage (BAC) fluid from each animal.
The cells of BAL fluid were collected by centrifugation and were then diluted with distilled water to disrupt, and the hemoglobin contents determined spectrophotometrically at 541 nm.
Test drugs were dissolved in saline or methyl cellulose, and instilled intratracheally in the same manner as used to instill elastase, at 5 minutes before instillation of elastase.

[4] = read-out: IC50 Porcine pancreas elastase

Compound | IC50 [1] [µM] | IC50 [2, 4] [µM] | also measured
3(RS)-[[4-(Carboxymethylaminocarbonyl)phenylaminocarbonyl]-L-valyl-L-prolyl] amino-1,1,1-trifluoro-2-oxo-4-methylpentane [Example 23] | 0.81 | 2.4 | % inhibition of elastase-induced lung hemorrhage ([3]; 1 μg/site intratracheal): 16.0%; Hemorrhage (OD541 nm) ([3]; 1 μg/site intratracheal): 9.435 ± 0.941 OD541 nm; % inhibition of elastase-induced lung hemorrhage ([3]; 10 μg/site intratracheal): 75.6%; Hemorrhage (OD541 nm) ([3]; 10 μg/site intratracheal): 3.412 ± 1.31 OD541 nm; % inhibition of elastase-induced lung hemorrhage ([3]; 100 μg/site intratracheal): 102.1%; Hemorrhage (OD541 nm) ([3]; 100 μg/site intratracheal): 0.7258 ± 0.303 OD541 nm; ED50 elastase-induced lung hemorrhage [3]: 3.2 μg/site
CC(C)C(NC(=O)[C@@H]1CCCN1C(=O)[C@@H](NC(=O)c1ccc(C(=O)NCC(=O)OCc2ccccc2)cc1)C(C)C)C(=O)C(F)(F)F (mixture of isomers) [Example 1, 3(RS)-[[4-[(benzyloxycarbonyl)methylaminocarbonyl]-phenylcarbonyl]-L-valyl-L-prolyl]amino-1,1,1-trifluoro-4-methyl-2-oxopentane] | 0.45 | 4.4 | 
CC(C)C(NC(=O)[C@@H]1CCCN1C(=O)[C@@H](NC(=O)c1ccc(C(=O)NCc2ccc([N+](=O)[O-])cc2)cc1)C(C)C)C(=O)C(F)(F)F (mixture of isomers) [Example 6, 3(RS)-[[4-[(4-Nitrobenzyl)aminocarbonyl]phenylcarbonyl]-L-valyl-L-prolyl]amino-1,1,1-trifluoro-4-methyl-2-oxopentane] | 0.43 | 6.9 | 
CC(C)C(NC(=O)[C@@H]1CCCN1C(=O)[C@@H](NC(=O)c1ccc(C(=O)Nc2ccc(Cl)cc2)cc1)C(C)C)C(=O)C(F)(F)F (mixture of isomers) [Example 7, 3(RS)-[[4-[(4-Chlorophenyl)aminocarbonyl]phenylcarbonyl]-L-valyl-L-prolyl]amino-1,1,1-trifluoro-4-methyl-2-oxopentane] | 0.32 | 3.8 | 
CC(C)C(NC(=O)[C@@H]1CCCN1C(=O)[C@@H](NC(=O)c1ccc(C(=O)N[C@@H](CCC(=O)OCc2ccccc2)C(=O)OCc2ccccc2)cc1)C(C)C)C(=O)C(F)(F)F (mixture of isomers) [Example 10, 3(RS)-[[4-[[1(S),3-bis(Benzyloxycarbonyl)propyl]aminocarbonyl]phenylcarbonyl]-L-valyl-L-prolyl]amino-1,1,1-trifluoro-4-methyl-2-oxopentane] | 8 | 310 | 
CC(C)C(NC(=O)[C@@H]1CCCN1C(=O)[C@@H](NC(=O)c1ccc(C(=O)NCC(=O)O)cc1)C(C)C)C(=O)C(F)(F)F (mixture of isomers) [Example 13, 3(RS)-[[4-(carboxymethylaminocarbonyl)phenylcarbonyl]-L-valyl-L-prolyl]amino-1,1,1-trifluoro-4-methyl-2-oxopentane] | 0.72 |  | IC50 ([2]; IC50 Porcine pancreas elastase): 3.3 µM; % inhibition of elastase-induced lung hemorrhage ([3]; 1 μg/site intratracheal): 21.6%; Hemorrhage (OD541 nm) ([3]; 1 μg/site intratracheal): 11.63 ± 1.99 OD541 nm; % inhibition of elastase-induced lung hemorrhage ([3]; 10 μg/site intratracheal): 74.5%; Hemorrhage (OD541 nm) ([3]; 10 μg/site intratracheal): 4.217 ± 1.02 OD541 nm; % inhibition of elastase-induced lung hemorrhage ([3]; 100 μg/site intratracheal): 100.0%; Hemorrhage (OD541 nm) ([3]; 100 μg/site intratracheal): 0.6384 ± 0.222 OD541 nm; ED50 elastase-induced lung hemorrhage [3]: 3.0 μg/site
CC(C)C(NC(=O)[C@@H]1CCCN1C(=O)[C@@H](NC(=O)c1ccc(C(=O)NCc2ccc(N)cc2)cc1)C(C)C)C(=O)C(F)(F)F (mixture of isomers) [Example 18, 3(RS)-[[4-[(4-aminobenzyl)aminocarbonyl]phenylcarbonyl]-L-valyl-L-prolyl]amino-1,1,1-trifluoro-4-methyl-2-oxopentane] | 0.61 | 3.8 | 
CC(C)C(NC(=O)[C@@H]1CCCN1C(=O)[C@@H](NC(=O)Nc1ccc(C(=O)NCC(=O)OCc2ccccc2)cc1)C(C)C)C(=O)C(F)(F)F (mixture of isomers) [Example 22, 3(RS)-[[4-(Benzyloxycarbonylmethylaminocarbonyl)phenylaminocarbonyl]-L-valyl-L-prolyl]amino-1,1,1-trifluoro-2-oxo-4-methylpentane] | 0.68 | 4.9 | 
CC(C)C(NC(=O)[C@@H]1CCCN1C(=O)[C@@H](NC(=O)c1ccc(C(=O)NCC(=O)O)cc1)C(C)C)C(=O)C(F)(F)F (single isomer, unassigned) [Example 15, 3(R or S)-[[4-(Carboxymethylaminocarbonyl)phenylcarbonyl]-L-valyl-L-prolyl]amino-1,1,1-trifluoro-2-oxo-4-methylpentane] | 0.61 |  | IC50 ([2]; IC50 Porcine pancreas elastase): 2 µM
CC(C)C(NC(=O)[C@@H]1CCCN1C(=O)[C@@H](NC(=O)c1ccc(C(=O)NCC(=O)O)cc1)C(C)C)C(=O)C(F)(F)F (single isomer, unassigned) [Example 16, 3(R or S)-[[4-(Carboxymethylaminocarbonyl)phenylcarbonyl]-L-valyl-L-prolyl]amino-1,1,1-trifluoro-2-oxo-4-methylpentane] | 7.1 |  | IC50 ([2]; IC50 Porcine pancreas elastase): 30 µM

Continued by falling IC50 [1], values first:

IC50 [1] [µM] | IC50 [2, 4] [µM] | Compound | also measured
1.4 | 3.8 | CC(C)C(NC(=O)[C@@H]1CCCN1C(=O)[C@@H](NC(=O)Nc1ccc(C(=O)NCC(=O)N(C)C)cc1)C(C)C)C(=O)C(F)(F)F (mixture of isomers) [Example 24, 3(RS)-[[4-(Dimethylaminocarbonylmethylaminocarbonyl)phenylaminocarbonyl]-L-valyl-L-prolyl]amino-1,1,1-trifluoro-2-oxo-4-methylpentane] | 
1.4 | 2.9 | CC(C)C(NC(=O)[C@@H]1CCCN1C(=O)[C@@H](NC(=O)c1ccc(C(=O)NN2CCOCC2)cc1)C(C)C)C(=O)C(F)(F)F (mixture of isomers) [Example 4, 3(RS)-[[4-[(4-Morpholino)aminocarbonyl]-phenylcarbonyl]-L-valyl-L-prolyl]amino-1,1,1-trifluoro-4-methyl-2-oxopentane] | 
1.1 | 3.4 | CC(C)C(NC(=O)[C@@H]1CCCN1C(=O)[C@@H](NC(=O)c1ccc(C(=O)N[C@@H](CCC(=O)O)C(=O)O)cc1)C(C)C)C(=O)C(F)(F)F (mixture of isomers) [Example 17, 3(RS)-[[4-[(1(S),3-Dicarboxypropyl)aminocarbonyl]-phenylcarbonyl]-L-valyl-L-prolyl]amino-1,1,1-trifluoro-4-methyl-2-oxopentane] | 
0.98 | 8.7 | CC(C)C(NC(=O)[C@@H]1CCCN1C(=O)[C@@H](NC(=O)c1ccc(C(=O)NCCCC(=O)OCC(=O)c2ccccc2)cc1)C(C)C)C(=O)C(F)(F)F (mixture of isomers) [Example 3, 3(RS)-[[4-[(3-Benzoylmethoxycarbonyl)propylaminocarbonyl]phenylcarbonyl]-L-valyl-L-prolyl]amino-1,1,1-trifluoro-4-methyl-2-oxopentane] | 
0.87 | 16 | CC(C)C(NC(=O)[C@@H]1CCCN1C(=O)[C@@H](NC(=O)c1ccc(C(=O)N[C@H](Cc2ccccc2)C(=O)OCc2ccccc2)cc1)C(C)C)C(=O)C(F)(F)F (mixture of isomers) [Example 8, 3(RS)-[[4-[[(1(R)-Benzyloxycarbonyl)-2-phenyl]ethylaminocarbonyl]phenylcarbonyl]-L-valyl-L-prolyl]amino-1,1,1-trifluro-4-methyl-2-oxopentane] | 
0.87 | 9.5 | CC(C)C(NC(=O)[C@@H]1CCCN1C(=O)[C@@H](NC(=O)c1ccc(C(=O)N[C@@H](Cc2ccccc2)C(=O)OCc2ccccc2)cc1)C(C)C)C(=O)C(F)(F)F (mixture of isomers) [Example 9, 3(RS)-[[4-[[(1(S)-Benzyloxycarbonyl)-2-phenyl]ethylaminocarbonyl]phenylcarbonyl]-L-valyl-L-prolyl]amino-1,1,1-trifluoro-4-methyl-2-oxopentane] | 
0.3 | 5.1 | CC(C)C(NC(=O)[C@@H]1CCCN1C(=O)[C@@H](NC(=O)c1ccc(C(=O)NCc2ccc(Cl)cc2)cc1)C(C)C)C(=O)C(F)(F)F (mixture of isomers) [Example 5, 3(RS)-[[4-[(4-Chlorobenzyl)aminocarbonyl]-phenylcarbonyl]-L-valyl-L-prolyl]amino-1,1,1-trifluoro-4-methyl-2-oxopentane] | 
